Experimental data reported in PubChem BioAssay AID1963848 (Molecular Pharmacology Branch, DTP, NCI, 2024).
Values joined by “and” are separate entries in the source; they are usually repeats but may differ in a detail not shown here. Equal entries are not always repeated.

System: 379773-124-R-J2-PDC spheroid viability
Experiment: Anticancer human tumor 379773-124-R-J2-PDC patient-derived endometrial carcinoma cell line growth inhibition [POLQ]
Settings: spheroids with HUVEC and MSC; for viability, T/C: stronger effect = lower value
Experimental: Multicellular complex tumor spheroid response to Polymerase (POL) inhibitors (novobiocin, ART-558, RP6685) in combination with a variety of drugs and investigational agents in selected tumor cell lines
The POL inhibitors (novobiocin, ART-558, and RP6685) were evaluated both individually and in combination with standard of care and investigational anticancer small molecules within a complex spheroid model of solid tumors. . Complex spheroids include a stromal component modeled by human endothelial cells (HUVEC) and fibroblasts modeled by human mesenchymal stem cells (MSCs). The concentration ranges selected for each drug and investigational agent were based upon clinically achievable concentrations if the clinical Cmax of the agent was known.
Compounds. The drugs and investigational agents: novobiocin (NSC847541), ART-558 (NSC835418), RP-6685 (NSC848927), peposertib (NSC802822), ceralasertib (NSC780249), elimusertib (NSC800525), camonsertib (NSC841442), AZD-1390 (NSC803789), olaparib (NSC753686), talazoparib (NSC767125), rucaparib (NSC756644), sotorasib (NSC818433), MRTX-1133 (NSC836407), SN-38 (NSC673596), topotecan (NSC609699), epotoside (NSC141540), doxorubicin (NSC123127), gemcitabine (NSC613327), 5-fluorouracil (NSC19893), paclitaxel (NSC125973), vemurafenib (NSC761431), MSA-2 (NSC828583), SN-011 (NSC837082), adavosertib (NSC754352), prexasertib (NSC758257), carboplatin (NSC241240) and oxaliplatin (NSC266046), were obtained from the National Cancer Institute (NCI) Developmental Therapeutics Program Chemical Repository (21). The FDA-approved anticancer drug set is available from the Developmental Therapeutics Program at https://dtp.cancer.gov/organization/dscb/obtaining/. […] The stock solutions were prepared in dimethyl sulfoxide (DMSO, Sigma-Aldrich, St. Louis, MO, cat. D2650), except for the platinum compounds which were prepared in saline (Quality Biological, Gaithersburg, MD, cat. 114-055-101), at 800-fold the tested concentration and stored at -70 degrees C prior to their use. All drugs and investigational agents were tested over a range starting from a high concentration at or near the clinical Cmax and decreasing in half-log increments. If the clinical Cmax for an agent had not been determined, the highest concentration tested was 10 microM, except for SN-38, which was tested at a high concentration of 1 microM.
Cell Culture. All cells were maintained in an incubator at 37 degrees C and 5% CO2 with 95% humidity. The PDC lines were cultured according to standard operating procedures established by the NCI PDMR (https://pdmr.cancer.gov). Table 3 of the manuscript, lists the cell lines along with the number of the three cell types plated to form the mct-spheroids and media for tumor cell growth. After thawing, all PDC lines, except 997537-175-T-J1-PDC and 415267-285-R-J2-PDC, were cultured in Matrigel-coated flasks prepared with a working solution of 1X Ham's F-12 nutrient mix, without supplementation (Thermo Fisher Scientific, cat. 11765054), 100 U/mL penicillin-streptomycin (Thermo Fisher Scientific, cat. 15140122), and 2.5% Matrigel (Corning Inc., Corning, NY, cat. 354248) for the first three passages. The two PDC lines 997537-175-T-J1-PDC and 415267-285-R-J2-PDC were cultured on uncoated flasks. The 857933-349-R-J2-PDC line was cultured in 6C/Colon 1B media containing advanced DMEM/F-12 (Thermo Fisher Scientific, cat. 12634028), 10 mM HEPES (Thermo Fisher Scientific, cat. 15630080), 1X GlutaMAX supplement (Thermo Fisher Scientific, cat. 35050061), 0.1 mg/mL primocin (InvivoGen, San Diego, CA, cat. ant-pm-2), 10% defined fetal bovine serum, heat inactivated (HyClone Laboratories Inc., Logan, UT, cat. SH30070.03HI), 50% L-WRN conditioned media (ATCC, cat. CRL-3276), 1.25 mM N-Acetyl-L-cysteine (Sigma-Aldrich, cat. A9165), 10 mM nicotinamide (Sigma-Aldrich, cat. N0636), 1X B-27 supplement (Thermo Fisher Scientific, cat. 17504044), 1X N-2 supplement (Thermo Fisher Scientific, cat. […]

[1] = compound alone, run of 10/31/2023
[2] = compound alone, run of 11/06/2023
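Also: spheroids exposed to drugs for seven days before readout.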
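For viability, T/C in this document: percent viability relative to DMSO vehicle control taken as 100%.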

Row | SMILES | viability, T/C (compound 0.0316 µM) | viability, T/C (compound 0.316 µM) | viability, T/C (compound 3.16 µM) | viability, T/C (compound 10 µM) | IC50 [1] | viability, T/C (compound 0.1 µM) | viability, T/C (compound 1 µM) | IC50 (curve of compound) | viability, T/C (compound 0.00316 µM) | viability, T/C (compound 0.01 µM) | IC50 [2] | viability, T/C (compound 0.000316 µM) | viability, T/C (compound 0.001 µM)
1 | COC1C(OC(N)=O)C(O)C(Oc2ccc3c(O)c(NC(=O)c4ccc(O)c(CC=C(C)C)c4)c(=O)oc3c2C)OC1(C)C (stereo not given) | 83.6% [middle of 13 runs] | 88.3% [middle of 13 runs] | 89.8% [middle of 13 runs] | 81.1% [middle of 13 runs] | > 10 µM |  |  |  |  |  |  |  | 
2 | COc1cc(C2c3cc4c(cc3C(OC3OC5COC(C)OC5C(O)C3O)C3COC(=O)C23)OCO4)cc(OC)c1O (stereo not given) | 84.9% and 99% and 87% | 89.5% and 90% and 75.2% | 14.7% and 19.1% and 14.3% | 10.1% (2×) and 14.7% |  | 86.8% and 96.4% and 75.6% | 64.8% and 72.1% and 65% | 1.4 µM and 1.62 µM |  |  |  |  | 
3 | COc1cc2cc(C(=O)CCC(=O)O)sc2cc1OC | 89.3% and 91.6% (2×) | 85.8% and 90.2% and 80.9% | 105% and 95.3% and 92.9% | 91.6% and 79.1% and 73.2% |  | 85.4% and 96.8% and 107% | 94.6% and 96.7% and 94% | > 10 µM |  |  |  |  | 
4 | COc1ccc([C@@H](O)c2cc(-c3ncnc4cc(N5CCOCC5)ccc34)c(F)cc2Cl)nn1 | 92.5% and 98.9% and 94.2% | 79.4% and 93.5% and 84.7% | 67.8% and 76.8% and 86.3% | 37.9% and 43.7% and 38.1% |  | 91.3% and 93.2% and 82.2% | 99.3% and 110% and 87.4% | 6.28 µM and 8.03 µM and 7.52 µM |  |  |  |  | 
5 | COc1cccc(OCCCN)c1-c1cc(Nc2cnc(C#N)cn2)n[nH]1 | 2.75% and 2.85% and 3% | 2.05% and 2.52% and 2.6% |  |  |  | 2.5% and 2.23% and 2.01% | 1.38% and 1.84% and 2.29% | 0.00455 µM and 0.00602 µM and 0.00641 µM | 71.1% and 84.4% and 94.5% | 4.45% and 22.9% and 22% |  |  | 
6 | COc1cccc2c1C(=O)c1c(O)c3c(c(O)c1C2=O)CC(O)(C(=O)CO)CC3OC1CC(N)C(O)C(C)O1 (stereo not given) | 78.1% and 95.3% and 81.8% | 7.16% and 12.4% and 5.32% | 1.99% and 2.49% and 0.93% | 0.82% and 0.3% and 0.62% |  | 25% and 40.3% and 29.4% | 7.82% and 10.6% and 5.98% | 0.0581 µM and 0.0807 µM and 0.0636 µM |  |  |  |  | 
7 | Cc1cccc(N(C)C(=O)C2C(O)CCN2c2nc(C)cc(C(F)(F)F)c2C#N)c1 (stereo not given) | 89.8% [middle of 13 runs] | 88.2% [middle of 13 runs] | 89% [middle of 13 runs] | 92.7% [middle of 13 runs] | > 10 µM | 90.7% [middle of 13 runs] | 88.2% [middle of 13 runs] |  |  |  | > 10 µM |  | 
8 | Cn1ncnc1[C@H]1c2n[nH]c(=O)c3cc(F)cc(c23)N[C@@H]1c1ccc(F)cc1 | 69.2% and 76.9% and 80.9% |  |  |  |  | 51.7% and 51.5% and 63.7% |  | > 0.1 µM | 95.8% and 99.7% and 71.6% | 80.2% and 93.1% and 88.5% |  | 87.2% and 92.3% and 89.2% | 84% and 90% and 91.3%
9 | Nc1ccc(C#CCN(C(=O)Cc2ncc(C(F)(F)F)cc2C(F)(F)F)c2ccc(F)cc2)nn1 | 91.8% [middle of 13 runs] | 93.2% [middle of 13 runs] | 94.9% [middle of 12 runs] | 91.4% [middle of 13 runs] |  | 92.8% [middle of 13 runs] | 91.9% [middle of 13 runs] |  |  |  | > 10 µM |  | 
10 | Nc1ccn(C2OC(CO)C(O)C2(F)F)c(=O)n1 (stereo not given) | 25.4% and 19.1% and 15.5% | 8.47% and 12.9% and 7.5% | 10.8% and 13.3% and 10.3% | 7.47% and 10.7% and 7.2% |  | 8.86% and 11.2% and 9% | 10.6% and 10.1% and 9.75% | < 0.0316 µM |  |  |  |  | 
11 | O=C(Nc1ccc(O)c(NS(=O)(=O)c2ccc(F)cc2)c1)c1ccc(-c2ccccc2)cc1 | 98.6% and 86.4% and 88.8% | 97.9% and 93.9% and 76.7% | 91.6% and 97.1% and 84.3% | 77.9% and 78.2% and 65.2% |  | 96% and 86.4% and 90.7% | 105% and 82.9% and 109% | > 10 µM |  |  |  |  | 
12 | O=C(c1cc(Cc2n[nH]c(=O)c3ccccc23)ccc1F)N1CCN(C(=O)C2CC2)CC1 | 90.8% and 82.3% and 93.3% | 74.1% and 91.5% and 88.4% | 86.8% and 84.9% and 86.2% | 44.5% and 34.6% and 49.8% |  | 87% and 88.1% and 91.8% | 75.1% and 96.4% and 97.2% | 8.48 µM and 7.08 µM and > 10 µM |  |  |  |  | 
13 | O=c1[nH]cc(F)c(=O)[nH]1 | 99.4% and 89.8% and 84.2% | 87.7% and 83.8% and 83.7% | 80.8% (2×) and 87.2% | 54.3% and 51.3% and 50.9% |  | 81.4% and 94.1% and 74.5% | 93.3% and 88.7% and 90.6% | > 10 µM |  |  |  |  | 
